# Data: patent publication US9149475B2, “Protein kinase C inhibitors and uses thereof” (Rigel Pharmaceuticals, Inc., priority 2009, dated 2015)
# System: Human primary T cells
# Assay: IL-2 ELISA, human primary T cell, anti-CD3+CD28+ (whole cell assay)
# Type: cell-based
# Details: Homo sapiens, T-cell, 24 h, human primary T cells stimulated with anti-CD3 + anti-CD28, 24 hours
# Method: (§1) Human primary T cells were prepared as follows. Whole blood was obtained from a healthy volunteer, mixed 1:1 with PBS, layered on to Ficoll Hypaque (Amersham Pharmacia Biotech, Piscataway, N.J., Catalog #17-1440-03) in 2:1 blood/PBS:ficoll ratio and centrifuged for 30 minutes at 4° C. at 1750 rpm. The cells at the serum:ficoll interface were recovered and washed twice with 5 volumes of PBS. These freshly isolated human peripheral blood mononuclear cells were cultured in Yssel's medium containing 40 U/mL IL2 in a flask pre-coated with 1 μg/mL αCD3 and 5 μg/mL αCD28 (Anti-Human CD3, BD Pharmingen Catalog #555336, Anti-Human CD28, Beckman Coulter Catalog #IM1376). The cells were stimulated for 3-4 days, then transferred to a fresh flask and maintained in RPMI (RPMI-1640 with L-Glutamine; Mediatech, Inc., Herndon Va., cat. #10-040-CM) with 10% FBS and 40 U/mL IL-2. The primary T-cells were then washed twice with PBS to remove the IL-2.
# Human primary T cells (100,000 cells per well) were pre-incubated with or without test compound in Yssel's medium for 1 hr at 37° C. Cells were then stimulated by transferring them to round-bottom 96-well plates pre-coated with 1 μg/ml μCD3 and 5 μg/ml μCD28. For counter assay, cells were instead stimulated by adding 8× stock solutions of PMA and ionomycin in Yssels (for final concentrations of 0.5 ng/ml PMA and 0.1 μM ionomycin, both from Calbiochem). Cells were incubated at 37° C. for 24 hours before 100 μL supernatants were harvested for quantification of IL-2 by ELISA using Human IL-2 Duoset ELISA Kit from R and D Systems, Cat. #DY202E.
# as §1, with “Human primary T cell isolation and culture: Human primary” for “Human primary”, “for 30 min at 4°” for “for 30 minutes at 4°”, “at the serum: ficoll interface were” for “at the serum:ficoll interface were”
# Primary T cell stimulation and IL2 ELISA: Human primary T cells (100,000 cells per well) were pre-incubated with or without test compound in Yssel's medium for 1 hr at 37° C. Cells were then stimulated by transferring them to round-bottom 96-well plates pre-coated with 1 μg/ml αCD3 and 5 μg/ml αCD28. For counter assay, cells were instead stimulated by adding 8× stock solutions of PMA and ionomycin in Yssels (for final concentrations of 0.5 ng/ml PMA and 0.1 μM ionomycin, both from Calbiochem). Cells were incubated at 37° C. for 24 hours before 100 μL supernatants were harvested for quantification of IL-2 by ELISA using Human IL-2 Duoset ELISA Kit from R and D Systems, Cat. #DY202E.
row,IC50 [nM],Compound
1,> 1000,"CC1(C)CC(Nc2nc(Nc3ccc(OCCn4cncn4)c(OC(F)F)c3)ncc2F)CC(C)(C)N1 [Compound I-25, N2-(4-(2-(1H-1,2,4-triazol-1-yl)ethoxy)-3-(difluoromethoxy)phenyl)-5-fluoro-N4-(2,2,6,6-tetramethylpiperidin-4-yl)pyrimidine-2,4-diamine]"
2,250 to 500,"CN1C(C)(C)CC(Nc2nc(Nc3ccc(OCCn4ccnn4)c(OC(F)F)c3)ncc2F)CC1(C)C [Compound I-26, N2-(4-(2-(1H-1,2,3-triazol-1-yl)ethoxy)-3-(difluoromethoxy)phenyl)-5-fluoro-N4-(1,2,2,6,6-pentamethylpiperidin-4-yl)pyrimidine-2,4-diamine]"
3,< 250,"CN1C(C)(C)CC(Nc2nc(Nc3ccc(OCCn4cncn4)c(OC(F)F)c3)ncc2F)CC1(C)C [Compound I-27, N2-(4-(2-(1H-1,2,4-triazol-1-yl)ethoxy)-3-(difluoromethoxy)phenyl)-5-fluoro-N4-(1,2,2,6,6-pentamethylpiperidin-4-yl)pyrimidine-2,4-diamine]"
4,500 to 1000,"CC1(C)CC(Nc2nc(Nc3cc(OCCn4cncn4)cc(C(F)(F)F)c3)ncc2F)CC(C)(C)N1 [Compound I-28, N2-(3-(2-(1H-1,2,4-triazol-1-yl)ethoxy)-5-(trifluoromethyl)phenyl)-5-fluoro-N4-(2,2,6,6-tetramethylpiperidin-4-yl)pyrimidine-2,4-diamine]"
5,500 to 1000,"CN1C(C)(C)CC(Nc2nc(Nc3cc(OCCn4cncn4)cc(C(F)(F)F)c3)ncc2F)CC1(C)C [Compound I-29, N2-(3-(2-(1H-1,2,4-triazol-1-yl)ethoxy)-5-(trifluoromethyl)phenyl)-5-fluoro-N4-(1,2,2,6,6-pentamethylpiperidin-4-yl)pyrimidine-2,4-diamine]"
6,500 to 1000,"CC1(C)CC(Nc2nc(Nc3ccc(OCCN4CCCC4=O)c(OC(F)F)c3)ncc2F)CC(C)(C)N1 [Compound I-30, 1-(2-(4-(4-(2,2,6,6-tetramethylpiperidin-4-ylamino)-5-fluoropyrimidin-2-ylamino)-2-(difluoromethoxy)phenoxy)ethyl)pyrrolidin-2-one]"
7,< 250,"CN1C(C)(C)CC(Nc2nc(Nc3ccc(OCCN4CCCC4=O)c(OC(F)F)c3)ncc2F)CC1(C)C [Compound I-31, 1-(2-(4-(4-(1,2,2,6,6-pentamethylpiperidin-4-ylamino)-5-fluoropyrimidin-2-ylamino)-2-(difluoromethoxy)phenoxy)ethyl)pyrrolidin-2-one]"
8,500 to 1000,"CC1(C)CC(Nc2nc(Nc3cc(OCCn4ccnn4)cc(C(F)(F)F)c3)ncc2F)CC(C)(C)N1 [Compound I-32, N2-(3-(2-(1H-1,2,3-triazol-1-yl)ethoxy)-5-(trifluoromethyl)phenyl)-5-fluoro-N4-(2,2,6,6-tetramethylpiperidin-4-yl)pyrimidine-2,4-diamine]"
9,250 to 500,"CN1C(C)(C)CC(Nc2nc(Nc3cc(OCCn4ccnn4)cc(C(F)(F)F)c3)ncc2F)CC1(C)C [Compound I-33, N2-(3-(2-(1H-1,2,3-triazol-1-yl)ethoxy)-5-(trifluoromethyl)phenyl)-5-fluoro-N4-(1,2,2,6,6-pentamethylpiperidin-4-yl)pyrimidine-2,4-diamine]"
10,500 to 1000,"CC1(C)CC(Nc2nc(Nc3ccc(OCCn4ccnn4)c(OC(F)F)c3)ncc2C#N)CC(C)(C)N1 [Compound I-34, 4-(2,2,6,6-tetramethylpiperidin-4-ylamino)-2-(4-(2-(1H-1,2,3-triazol-1-yl)ethoxy)-3-(difluoromethoxy)phenylamino)pyrimidine-5-carbonitrile]"
11,500 to 1000,"CC1(C)CC(Nc2nc(Nc3cc(F)cc(OCCCn4cccc4)c3)ncc2F)CC(C)(C)N1 [Compound I-35, N2-(3-(3-(1H-pyrrol-1-yl)propoxy)-5-fluorophenyl)-5-fluoro-N4-(2,2,6,6-tetramethylpiperidin-4-yl)pyrimidine-2,4-diamine]"
12,500 to 1000,"CN1C(C)(C)CC(Nc2nc(Nc3cc(F)cc(OCCCn4cccc4)c3)ncc2F)CC1(C)C [Compound I-36, N2-(3-(3-(1H-pyrrol-1-yl)propoxy)-5-fluorophenyl)-5-fluoro-N4-(1,2,2,6,6-pentamethylpiperidin-4-yl)pyrimidine-2,4-diamine]"
13,> 1000,"CC1(C)CC(Nc2nc(Nc3cc(F)cc(OCCN4CCCC4=O)c3)ncc2F)CC(C)(C)N1 [Compound I-37, 1-(2-(3-(4-(2,2,6,6-tetramethylpiperidin-4-ylamino)-5-fluoropyrimidin-2-ylamino)-5-fluorophenoxy)ethyl)pyrrolidin-2-one]"
14,500 to 1000,"CN1C(C)(C)CC(Nc2nc(Nc3cc(F)cc(OCCN4CCCC4=O)c3)ncc2F)CC1(C)C [Compound I-38, 1-(2-(3-(4-(1,2,2,6,6-pentamethylpiperidin-4-ylamino)-5-fluoropyrimidin-2-ylamino)-5-fluorophenoxy)ethyl)pyrrolidin-2-one]"
15,> 1000,"CC1(C)CC(Nc2nc(Nc3cc(F)cc(OCCn4cncn4)c3)ncc2F)CC(C)(C)N1 [Compound I-39, N2-(3-(2-(1H-1,2,4-triazol-1-yl)ethoxy)-5-fluorophenyl)-5-fluoro-N4-(2,2,6,6-tetramethylpiperidin-4-yl)pyrimidine-2,4-diamine]"
16,500 to 1000,"CN1C(C)(C)CC(Nc2nc(Nc3cc(F)cc(OCCn4cncn4)c3)ncc2F)CC1(C)C [Compound I-40, N2-(3-(2-(1H-1,2,4-triazol-1-yl)ethoxy)-5-fluorophenyl)-5-fluoro-N4-(1,2,2,6,6-pentamethylpiperidin-4-yl)pyrimidine-2,4-diamine]"
17,< 250,"CN1C(C)(C)CC(Nc2nc(Nc3ccc(OCCCn4cccc4)c(OC(F)F)c3)ncc2F)CC1(C)C [Compound I-41, N2-(4-(3-(1H-pyrrol-1-yl)propoxy)-3-(difluoromethoxy)phenyl)-5-fluoro-N4-(1,2,2,6,6-pentamethylpiperidin-4-yl)pyrimidine-2,4-diamine]"
18,< 250,"CC1(C)CC(Nc2nc(Nc3ccc(OCCCn4cccc4)c(OC(F)F)c3)ncc2F)CC(C)(C)N1 [Compound I-42, N2-(4-(3-(1H-pyrrol-1-yl)propoxy)-3-(difluoromethoxy)phenyl)-5-fluoro-N4-(2,2,6,6-tetramethylpiperidin-4-yl)pyrimidine-2,4-diamine]"
19,> 1000,"CN1C(C)(C)CC(Nc2nc(Nc3ccc(Oc4ccncc4)c(OC(F)F)c3)ncc2F)CC1(C)C [Compound I-43, N2-(3-(difluoromethoxy)-4-(pyridin-4-yloxy)phenyl)-5-fluoro-N4-(1,2,2,6,6-pentamethylpiperidin-4-yl)pyrimidine-2,4-diamine]"
20,250 to 500,"CN1C(C)(C)CC(Nc2nc(Nc3ccc(Oc4cccnc4)c(OC(F)F)c3)ncc2F)CC1(C)C [Compound I-44, N2-(3-(difluoromethoxy)-4-(pyridin-3-yloxy)phenyl)-5-fluoro-N4-(1,2,2,6,6-pentamethylpiperidin-4-yl)pyrimidine-2,4-diamine]"
21,250 to 500,"CC1(C)CC(Nc2nc(Nc3ccc(Oc4cccnc4)c(OC(F)F)c3)ncc2F)CC(C)(C)N1 [Compound I-45, N2-(3-(difluoromethoxy)-4-(pyridin-3-yloxy)phenyl)-5-fluoro-N4-(2,2,6,6-tetramethylpiperidin-4-yl)pyrimidine-2,4-diamine]"
22,< 250,"CN1C(C)(C)CC(Nc2nc(Nc3ccc(OCCN4CCCC4)c(OC(F)F)c3)ncc2F)CC1(C)C [Compound I-46, N2-(4-(2-(pyrrolidin-1-yl)ethoxy)-3-(difluoromethoxy)phenyl)-5-fluoro-N4-(1,2,2,6,6-pentamethylpiperidin-4-yl)pyrimidine-2,4-diamine]"
23,500 to 1000,"CC1(C)CC(Nc2nc(Nc3ccc(OCCCN4CCOCC4)c(OC(F)F)c3)ncc2F)CC(C)(C)N1 [Compound I-47, N2-(4-(3-morpholinopropoxy)-3-(difluoromethoxy)phenyl)-5-fluoro-N4-(2,2,6,6-tetramethylpiperidin-4-yl)pyrimidine-2,4-diamine]"
